molecular target: T1, IDO1 (Homo sapiens, UniProt P14902); assay: HeLa Cell-Based IDO1 Kyn (Kynurenine) Production Assay; conditions: HeLa cells, IDO1 induced by IFN-γ, 0.4 mM L-Trp, 48 hours incubation, Kyn absorbance at 480 nm; read-out: Cell-Based EC50 (nM) Hela IDO1
T1 construct: endogenous in cells; host or cells: HeLa cells (American Type Culture Collection), induced with human recombinant IFN-γ
Procedure: HeLa Cell-Based IDO1 Kyn (Kynurenine) Production Assay:
The inhibitory activity of IDO1 inhibitors is determined by using a colorimetric reaction to measure Kyn generated from L-Trp (L-Tryptophon) oxidation by cellular IDO1 in HeLa cells after induction of IDO1 expression by IFN-γ. Hela cells were obtained from the American Type Culture Collection and recovered in 10% FBS-containing phenol red-free DMEM medium. Cells were plated onto a 96-well plate (100 μl/well) at 8000 cells per well and kept at 37° C. in a humidified incubator supplied with 5% CO2. 4 hours later, Human recombinant IFN-γ (8901SC, CST) was added to cells (final concentration 100 ng/mL) to stimulate endogenous IDO1. Compounds at different concentrations diluted in dimethylsulfoxide (DMSO) were added simultaneously with IFN-γ and 0.4 mM L-Trp. Cells were kept at 37° C. in a humidified incubator supplied with 5% CO2. After 48 hours of incubation, 100 μl supernatant from each well was removed to a new plate. The protein in the medium was precipitated with the addition of 8 μl 6N trichloroacetic acid. The plate was incubated at 60° C. for 30 minutes and then centrifugation at 2500 rpm for 10 minutes to remove sediments. 80 μl supernatants were carefully removed to a new clean plate and added with an equal volume of 2% 4-(Dimethylamino)benzaldehyde (D2004, Sigma) dissolved in glacial acetic acid. The absorbance at 480 nm wavelength derived from Kyn was measured using a PHERAstar FS plate reader (BMG LABTECH). The IC50 for each compound was derived from fitting the dose-response data to the four-parameter logistic model by using XLfit software (IDBS).

T1 sequence (P14902 whole entry): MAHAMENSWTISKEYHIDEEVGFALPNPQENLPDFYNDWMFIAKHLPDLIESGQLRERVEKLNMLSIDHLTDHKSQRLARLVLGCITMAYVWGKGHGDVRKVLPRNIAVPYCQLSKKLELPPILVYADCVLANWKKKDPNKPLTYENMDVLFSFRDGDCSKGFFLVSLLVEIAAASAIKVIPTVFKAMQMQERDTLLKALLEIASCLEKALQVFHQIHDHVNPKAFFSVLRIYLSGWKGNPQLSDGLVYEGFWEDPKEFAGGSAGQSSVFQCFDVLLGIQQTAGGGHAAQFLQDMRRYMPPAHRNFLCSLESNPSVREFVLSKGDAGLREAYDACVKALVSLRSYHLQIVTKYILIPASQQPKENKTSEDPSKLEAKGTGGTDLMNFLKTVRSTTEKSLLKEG

Structure (SMILES) | EC50 [nM]
C[C@@H](c1nc2ccc(C(=O)Nc3ccccc3)cc2[nH]1)[C@H]1CC[C@@H](c2ccnc3ccc(F)cc32)CC1 [Example 14, 2-((R)-1-((1s,4S)-4-(6-fluoroquinolin-4-yl)cyclohexyl)ethyl)-N phenyl-1H-benzo[d]imidazole-6-carboxamide] | 14.4
C[C@@H](c1nc2ccc(C(=O)NC3CC3)cc2[nH]1)[C@H]1CC[C@@H](c2ccnc3ccc(F)cc32)CC1 [Example 9, N-cyclopropyl-2-((R)-1-((1s,4S)-4-(6-fluoroquinolin-4-yl)cyclohexyl)ethyl)-1H-benzo[d]imidazole-6-carboxamide] | 12.6
COC1CCC(NC(=O)c2ccc3nc([C@H](C)[C@H]4CC[C@@H](c5ccnc6ccc(F)cc65)CC4)[nH]c3c2)CC1 (stereo partly drawn) [Example 18, 2-((R)-1-((1s,4S)-4-(6-fluoroquinolin-4-yl)cyclohexyl)ethyl)-N-(4-methoxycyclohexyl)-1H-benzo[d]imidazole-6-carboxamide] | 122
CONC(=O)c1ccc2nc(C(C)[C@H]3CC[C@@H](c4ccnc5ccc(F)cc54)CC3)[nH]c2c1 (some centres unmarked) [Example 7, 2-(1-((1s,4s)-4-(6-fluoroquinolin-4-yl)cyclohexyl)ethyl)-N-methoxy-1H-benzo[d]imidazole-6-carboxamide] | 470
Cc1cc(C(=O)NC2CCC2)cc2nc([C@@H](C)[C@H]3CC[C@@H](c4ccnc5ccc(F)cc54)CC3)[nH]c12 [Example 10a, N-cyclobutyl-2-((R)-1-((1s,4S)-4-(6-fluoroquinolin-4-yl)cyclohexyl)ethyl)-7-methyl-1H-benzo[d]imidazole-5-carboxamide] | 788
CC(c1nc2ccc(C(=O)NC3COC3)cc2[nH]1)C1CCC(c2ccnc3ccc(F)cc23)CC1 (centres unmarked) [Example 11, 2-(1-(4-(6-fluoroquinolin-4-yl)cyclohexyl)ethyl)-N-(oxetan-3-yl)-1H-benzo[d]imidazole-6-carboxamide] | 84.1
Cc1cc(C(=O)NC2CCC2)cc2nc([C@H](C)[C@H]3CC[C@@H](c4ccnc5ccc(F)cc54)CC3)[nH]c12 [Example 10b, N-cyclobutyl-2-((S)-1-((1s,4R)-4-(6-fluoroquinolin-4 yl)cyclohexyl)ethyl)-7-methyl-1H-benzo[d]imidazole-5-carboxamide] | 17.1
C[C@@H](c1nc2ccc(C(=O)NC(C)(C)C)cc2[nH]1)[C@H]1CC[C@@H](c2ccnc3ccc(F)cc32)CC1 [Example 3, N-(tert-butyl)-2-((R)-1-((1s,4S)-4-(6-fluoroquinolin-4-yl)cyclohexyl)ethyl)-1H-benzo[d]imidazole-6-carboxamide] | 74.5
COCCNC(=O)c1ccc2nc([C@H](C)[C@H]3CC[C@@H](c4ccnc5ccc(F)cc54)CC3)[nH]c2c1 [Example 13, 2-((R)-1-((1s,4S)-4-(6-fluoroquinolin-4-yl)cyclohexyl)ethyl)-N-(2-methoxyethyl)-1H-benzo[d]imidazole-6-carboxamide] | 62.9
C[C@@H](c1nc2ccc(C(=O)Nc3ccccc3)cc2[nH]1)[C@H]1CC[C@H](c2ccnc3ccc(F)cc32)CC1 [Example 15, 2-((R)-1-((1r,4R)-4-(6-fluoroquinolin-4-yl)cyclohexyl)ethyl)-N-phenyl-1H-benzo[d]imidazole-6-carboxamide] | 86.7
CC(c1nc2cc(C(=O)N(C)C)ccc2[nH]1)[C@H]1CC[C@@H](c2ccnc3ccc(F)cc32)CC1 (some centres unmarked) [Example 8, 2-(1-((1s,4s)-4-(6-fluoroquinolin-4-yl)cyclohexyl)ethyl)-N,N-dimethyl-1H-benzo[d]imidazole-5-carboxamide] | 46.1
C[C@@H](c1nc2ccc(C(=O)NCC3(O)CCC3)cc2[nH]1)[C@H]1CC[C@H](c2ccnc3ccc(F)cc32)CC1 [Example 17, 2-((R)-1-((1 r,4R)-4-(6-fluoroquinolin-4-yl)cyclohexyl)ethyl)-N-((1-hydroxycyclobutyl)methyl)-1H-benzo[d]imidazole-6-carboxamide] | > 1000
Cc1cc(C(=O)NC2CCC2)cc2nc(C(C)[C@H]3CC[C@@H](c4ccnc5ccc(F)cc54)CC3)[nH]c12 (some centres unmarked) [Example 10, N-cyclobutyl-2-(1-((1s,4s)-4-(6-fluoroquinolin-4-yl)cyclohexyl)ethyl)-7-methyl-1H-benzo[d]imidazole-5-carboxamide] | 27.1
CC(C)NC(=O)c1ccc2nc([C@H](C)[C@H]3CC[C@@H](c4ccnc5ccc(F)cc54)CC3)[nH]c2c1 [Example 2, 2-((R)-1-((1s,4S)-4-(6-fluoroquinolin-4-yl)cyclohexyl)ethyl)-N-isopropyl-1H-benzo[d]imidazole-6-carboxamide] | 50.6
C[C@@H](c1nc2ccc(C(=O)NCC3(O)CCC3)cc2[nH]1)[C@H]1CC[C@@H](c2ccnc3ccc(F)cc32)CC1 [Example 16, 2-((R)-1-((1s,4S)-4-(6-fluoroquinolin-4-yl)cyclohexyl)ethyl)-N-((1-hydroxycyclobutyl)methyl)-1H-benzo[d]imidazole-6-carboxamide] | > 1000
C[C@@H](c1nc2ccc(C(=O)NC3CCCCC3)cc2[nH]1)[C@H]1CC[C@@H](c2ccnc3ccc(F)cc32)CC1 [Example 6, N-cyclohexyl-2-((R)-1-((1s,4S)-4-(6-fluoroquinolin-4-yl)cyclohexyl)ethyl)-1H-benzo[d]imidazole-6-carboxamide] | 40.2
COCCNC(=O)c1ccc2nc([C@H](C)[C@H]3CC[C@H](c4ccnc5ccc(F)cc54)CC3)[nH]c2c1 [Example 12, 2-((R)-1-((1r,4R)-4-(6-fluoroquinolin-4-yl)cyclohexyl)ethyl)-N-(2-methoxyethyl)-1H-benzo[d]imidazole-6-carboxamide] | 959
C[C@@H](c1nc2ccc(C(=O)NC3CCCC3)cc2[nH]1)[C@H]1CC[C@@H](c2ccnc3ccc(F)cc32)CC1 [Example 5, N-cyclopentyl-2-((R)-1-((1s,4S)-4-(6-fluoroquinolin-4-yl)cyclohexyl)ethyl)-1H-benzo[d]imidazole-6-carboxamide] | 38.8

Continued, values first:

EC50 [nM] | Structure (SMILES)
3.12 | CC(c1nc2cnc(C(=O)NC3CC3)cc2[nH]1)[C@H]1CC[C@@H](c2ccnc3ccc(F)cc32)CC1 (mixture of isomers) [Example 22, N-cyclopropyl-2-(1-((1s,4s)-4-(6-fluoroquinolin-4-yl)cyclohexyl)ethyl)-1H-imidazo[4,5-c]pyridine-6-carboxamide]
8.9 | CC(c1nc2c(F)c(F)c(C(=O)NC3CC3)cc2[nH]1)[C@H]1CC[C@@H](c2ccnc3ccc(F)cc32)CC1 (some centres unmarked) [Example 21, N-cyclopropyl-4,5-difluoro-2-(1-((1s,4s)-4-(6-fluoroquinolin-4-yl)cyclohexyl)ethyl)-1H-benzo[d]imidazole-6-carboxamide]
24.9 | C[C@@H](c1nc2cc(C(=O)NC3CC3)cnc2[nH]1)[C@H]1CC[C@@H](c2ccnc3ccc(F)cc32)CC1 [Example 24, N-cyclopropyl-2-((R)-1-((1s,4S)-4-(6-fluoroquinolin-4-yl)cyclohexyl)ethyl)-3H-imidazo[4,5-b]pyridine-6-carboxamide]
193 | COC1CCC(NC(=O)c2ccc3nc([C@H](C)[C@H]4CC[C@H](c5ccnc6ccc(F)cc65)CC4)[nH]c3c2)CC1 (stereo partly drawn) [Example 19, 2-((R)-1-((1r,4R)-4-(6-fluoroquinolin-4-yl)cyclohexyl)ethyl)-N-(4-methoxycyclohexyl)-1H-benzo[d]imidazole-6-carboxamide]
0.77 | CCNC(=O)c1cc2nc([C@H](C)[C@H]3CC[C@@H](c4ccnc5ccc(F)cc54)CC3)[nH]c2cn1 [Example 26, N-ethyl-2-((R)-1-((1s,4S)-4-(6-fluoroquinolin-4-yl)cyclohexyl)ethyl)-3H-imidazo[4,5-c]pyridine-6-carboxamide]
6.9 | CC(c1nc2cc(C(=O)NC3CC3)c(F)cc2[nH]1)[C@H]1CC[C@@H](c2ccnc3ccc(F)cc32)CC1 (stereo partly drawn) [Example 20, N-cyclopropyl-6-fluoro-2-(1-((1s,4S)-4-(6-fluoroquinolin-4-yl)cyclohexyl)ethyl)-1H-benzo[d]imidazole-5-carboxamide]
82.4 | CC(c1nc2cc3c(=O)[nH]cnc3cc2[nH]1)[C@H]1CC[C@@H](c2ccnc3ccc(F)cc32)CC1 (some centres unmarked) [Example 25, 2-(1-((1s,4s)-4-(6-fluoroquinolin-4-yl)cyclohexyl)ethyl)-3,7-dihydro-8H-imidazo[4,5-g]quinazolin-8-one]
7.12 | CNC(=O)c1cc2[nH]c(C(C)[C@H]3CC[C@@H](c4ccnc5ccc(F)cc54)CC3)nc2cn1 (mixture of isomers) [Example 23, 2-(1-((1s,4s)-4-(6-fluoroquinolin-4-yl)cyclohexyl)ethyl)-N-methyl-1H-imidazo[4,5-c]pyridine-6-carboxamide]

From patent publication US20220227762A1, “AMIDE-SUBSTITUTED IMIDAZO COMPOUNDS AS SELECTIVE INHIBITORS OF INDOLEAMINE 2,3-DIOXYGENASES” (BEIGENE, LTD., priority 2019, published 2022)
